{"source": "patent US9545453B2", "about": "“CXCR4 inhibiting carriers for nucleic acid delivery” (Wayne State University, priority 2011, dated 2017)", "key": {"[1]": {"experiment": "Toxicity of copper complexes of P(AMD-CBA) (procedure of example 14)", "assay_type": "cell-based", "quoted_text": "20,000 cells were seeded per well in 96-well plates 24 hours ahead. The culturing medium was first removed and then replaced with 150 μL of medium containing increasing concentration of the polycations. After 24 hours, the incubation medium was removed and a mixture of 100 μL of fresh serum-free medium and 20 μL of MTS reagent solution was added to each well. The cells were incubated for at 37° C. in CO2 incubator for 2 hours. The absorbance at wavelength 505 nm was then measured to determine cell viability. IC50 values were calculated by Prism Graphpad Software.\nToxicity of polycations was also evaluated by MTS assay in Hep G2 cells and CXCR4+U2OS cells. […] Hep G2 cells were maintained in MEM supplemented with 10% FBS. Human epithelial osteosarcoma U2OS cells stably expressing human CXCR4 receptor fused to the N-terminus of enhanced green fluorescent protein were purchased form Fisher Scientific. The cells were cultured in DMEM supplemented with 2 mM L-Glutamine, 10% FBS, 1% Pen-Strep and 0.5 mg/ml G418. The cells were plated into 96-well microtiter plates at a density of 20,000 cells/well. […] After 2 h incubation, the absorbance was measured spectrophotometrically in Synergy 2 Microplate Reader (BioTek, VT) at a wavelength of 490 nm. The relative cell viability (%) was calculated as [A]sample/[A]untreated×100%."}, "[2]": {"test_system": "CXCR4+U2OS cells", "experiment": "Luciferase transfection in CXCR4+U2OS cells", "assay_type": "cell-based, Human", "conditions": "100 ng/mL, serum-free medium, 4 h"}, "[3]": {"target": "T1, CXCR4 (Homo sapiens, UniProt P61073)", "experiment": "Phorbol myristate acetate-stimulated CXCR4 internalization", "assay_type": "cell-based", "conditions": "100 ng/mL phorbol myristate acetate", "from_the_text": "It has been reported that CXCL12 and phorbol esters trigger CXCR4 internalization through entirely different uptake pathway (Signoret, Oldridge et al. 1997)."}, "[4]": {"conditions": "complexes with nucleic acids", "from_the_text": "Ability to condense DNA is a prerequisite for successful polyplex gene delivery. FIG. 1 schematically represents this process."}, "[5]": {"test_system": "CXCR4+U2OS cells", "experiment": "Matrigel cell invasion assay towards CXCL12", "assay_type": "cell-based, Human", "conditions": "CXCL12-mediated invasion, 16 h", "quoted_text": "The upper sides of the transwell inserts were coated with 40 μl Matrigel diluted in serum-free medium (v/v 1:3) per insert. The 24-well plates with coated inserts were then placed in 37° C. incubator for 2 h. CXCR4+U2OS cells were trypsinized and resuspended in different concentrations of drugs in serum-free medium for 30 min before adding to the inserts at a final concentration of 10,000 cells in 300 μl medium per insert. 20 nM CXCL12 in serum-free medium as the chemo-attractant was then added to corresponding wells in the companion plate. After 16 h, the non-invaded cells on the upper surface of the inserts were removed with a cotton swab. The invaded cells were then fixed and stained by dipping the inserts into Diff-Quick solution. The images were taken by EVOS ×1 microscope. Five 20× imaging areas were randomly selected for each insert and each sample was conducted in triplicate. Statistical significance of the observed differences in cell invasion was analyzed using non-parametric ANOVA with Dunn's multiple comparison test using GraphPad InStat (v. 3.10). P<0.05 was considered significant.\nTo further confirm the CXCR4 antagonism of RPA and RPA/DNA polyplexes, the anti-metastatic ability was evaluated by a Matrigel cell invasion assay. […] The DNA dose used in the experiment with the polyplexes (1 μg/mL DNA) was in the range of typical doses used in transfection experiments."}, "[6]": {"test_system": "pDNA", "experiment": "DNA condensation by ethidium bromide exclusion assay", "assay_type": "physicochemical", "conditions": "pH 7.4", "experimental": "(§1) The ability of P(AMD-CBA) to condense pDNA was determined by ethidium bromide exclusion (EtBr) assay by measuring the changes in EtBr/pDNA fluorescence. pDNA solution at a concentration of 20 μg/mL was mixed with EtBr (1 μg/mL) and fluorescence was measured and set to 100% using an excitation wavelength of 540 nm and an emission wavelength of 590 nm. Fluorescence readings were taken following a stepwise addition of the polycation solution, and the condensation curve for each polycation was constructed.\nas §1, with “P(Cyc-CBA)” for “P(AMD-CBA)”\nAt pH 7.4, a w/w ratio above 2 was required for RPA to fully condense the DNA, which was higher than that required in case of RHB (w/w 1) and PEI (w/w 0.5). […] The redox stability of RPA/DNA polyplexes was tested by agarose gel electrophoresis after GSH treatment."}, "[7]": {"target": "T1, CXCR4", "experiment": "CXCL12-induced intracellular calcium flux (Fluo-3)", "assay_type": "cell-based", "conditions": "Fluo-3 calcium indicator, CXCL12 stimulation", "from_the_text": "Binding of chemokine CXCL12 to its receptor CXCR4 triggers an intracellular signal transduction cascade comprising a transient increase in cytosolic free calcium."}}, "note": "“Also recorded” adds a separate entry of the source."}
{"smiles": "[Cl][Cu][Cl]", "note": "[CuCl2]", "values": [{"measurement": "Toxicity with increasing copper content", "setting": "[1]", "result": "No toxicity"}]}
{"smiles": "CCCCCCCCCCCCCC(=O)O[C@@H]1[C@@H](C)[C@@]2(O)[C@@H](C=C(CO)C[C@]3(O)C(=O)C(C)=C[C@@H]23)[C@@H]2C(C)(C)[C@]12OC(C)=O", "note": "[PMA, phorbol 12-myristate 13-acetate]", "values": [{"measurement": "Cytotoxicity under the transfection conditions", "setting": "[2]", "result": "No cytotoxicity"}]}
{"smiles": "c1cc(CN2CCCNCCNCCCNCC2)ccc1CN1CCCNCCNCCCNCC1", "note": "[AMD3100, 1,1′-[1,4-Phenylenebis(methylene)]bis[1,4,8,11-tetraazacyclotetradecane]]", "values": [{"measurement": "Inhibition of phorbol-stimulated CXCR4 internalization", "setting": "[3]", "result": "do not inhibit"}, {"measurement": "Transfection level", "setting": "[4]", "result": "only background levels of transfection"}, {"measurement": "Blocked invasion (% of cells)", "setting": "[5]", "result": 75, "unit": "%"}, {"measurement": "Decrease in EtBr fluorescence", "setting": "[6]", "result": "about 30%"}, {"measurement": "Effect on CXCL12-induced calcium signaling (CXCR4-mediated)", "setting": "[7]", "result": "strong antagonistic effect; also recorded: CXCL12 antagonists"}]}
